# Where two headings read alike, the source gives them in different places.
# Columns and labels:
# E. coli AG100 [1] = assay: Resistance modulation (MIC reduction) assay with CIP and TET; assay type: cell-based, Escherichia coli
# Method: (§1) The resistance modulation effects of compounds with ciprofloxacin (CIP) and tetracycline (TET) antibiotics were evaluated by the MIC reduction method on the Gram-negative E. coli AG100, AG100 A, and the Gram-positive S. aureus ATCC and MRSA strains.
# (§2) The chemosensitizing activity of benzoxazole-type ligands and their metal complexes was determined based on the MIC values of the antibiotics in the presence of sub-inhibitory concentrations of the compounds (¼ MIC) in both Gram-negative and Gram-positive strains. The MICs were determined in strains by the two-fold broth microdilution method in 96-well plates, using serial dilutions of TET and CIP. The first four rows contained two-fold dilutions of antibiotics, and combinations of the TET and CIP and tested compounds were transferred into the last four rows. The 10^−4 dilution of an overnight bacterial culture in 50 μL of MHB was then measured to each well, except for the medium control wells. The plates were kept at 37 °C for 18 h. MIC values of antibiotics and their combination with tested compounds were detected by visual inspection.
# S. aureus MRSA 272123 = assay: as above; assay type: cell-based, Staphylococcus aureus
# Method: as §1, §2
# E. coli AG100 [2] = assay: Real-time ethidium bromide accumulation (efflux pump inhibition, AcrAB-TolC); assay type: cell-based, Escherichia coli; conditions: compounds at ¼ MIC, EB 1 μg/mL, minute 30
# Method: (§3) Since multidrug resistance EPs are very important factors contributing to multidrug resistance (MDR) in both Gram-positive and Gram-negative bacteria, the inhibition of these pumps could reverse the resistant phenotype and restore the activity of antibiotics. The effect of compounds on ethidium bromide (EB) accumulation was determined by the automated EB method. This assay was used to determine how much of the fluorescent dye and pump substrate EB was accumulated by the bacterial cells in the presence of the tested compounds. The real-time accumulation of EB was monitored for 30 min in both S. aureus and E. coli strains.
# (§4) The accumulation of the efflux pump substrate EB was monitored by the automated EB method using a LightCycler real-time thermocycler (LightCycler 1.5, Roche, Indianapolis, IN, USA). An aliquot of an overnight culture of the S. aureus strains in TSB medium was inoculated into fresh TSB medium, and it was incubated until it reached an optical density (OD) of 0.6 at 600 nm. In the case of E. coli strains, the medium applied in the assay was LB broth; the preparation of the inoculum was similar to the one of S. aureus. The cells were washed with phosphate buffered saline (PBS; pH 7.4) and centrifuged at 13,000 × g for 3 min, the pellets were re-suspended in PBS (pH 7.4), and the OD was calibrated to 0.6 at 600 nm. The compounds were measured at ¼ MIC concentration (in double-concentrated form) to the EB solution in PBS. The final concentration of EB was determined according to the MIC and the fluorescent signal produced by this amount of EB. In the case of all strains, the concentration of EB was 1 μg/mL. Then, 10 μL of the EB solution plus the compound were pipetted into standard glass capillary tubes of 20 µL maximum volume (Roche, Indianapolis, USA), and 10 μL of bacterial culture (OD of 0.6 at 600 nm) were transferred to the capillaries. The capillaries containing the samples were placed into the carousel, and the fluorescence was monitored at the FL-2 channel in every minute on a real-time basis.
# (§5) Based on the data obtained, the relative fluorescence index (RFI) of the last time point (minute 30) was determined as follows:RFI = (RFtreated − RFuntreated)/RFuntreated(1) where RFtreated is the relative fluorescence (RF) at the last time point of the EB retention curve in the presence of an inhibitor, and RFuntreated is the relative fluorescence at the last time point of the EB retention curve of the untreated control having the solvent control (DMSO).
# E. coli AG100 A [3] = assay: Minimum inhibitory concentration (broth microdilution, CLSI); assay type: cell-based, Escherichia coli; conditions: 18 h
# Method: Wild-type E. coli K-12 AG100 strain (argE3 thi-1 rpsL xyl mtl Δ(gal-uvrB) supE44) expressing the AcrAB TolC EP at its basal level and its AcrAB-TolC deleted mutant E. coli K-12 AG100 A strain. The strains were donated by Prof. Dr. Hiroshi Nikaido (Department of Molecular and Cell Biology and Chemistry, University of California, Berkeley, CA, USA).
# (§6) The minimum inhibitory concentrations (MICs) of compounds were determined in 96-well plates based on the Clinical and Laboratory Standard Institute guidelines (CLSI guidelines). The compounds were diluted in 100 μL of MHB. Then, 10^−4 dilution of an overnight bacterial culture in 100 μL of medium were added to each well, with the exception of the medium control wells.
# [4] = test system: Staphylococcus aureus ATCC 25923; assay: as above; assay type: cell-based; conditions: S. aureus ATCC 25923, 18 h, visual inspection
# Method: (§7) The compounds were further investigated against two Gram-positive strains, S. aureus ATCC 25923 (MSSA), used as the methicillin susceptible reference strain, and the methicillin- and ofloxacin-resistant S. aureus 272123 clinical isolate (MRSA), which was given by Prof. Dr. Leonard Amaral (Institute of Hygiene and Tropical Medicine, Lisbon, Portugal).
# as §6
# S. aureus 272123 (MRSA) [5] = assay: as above; assay type: cell-based, Staphylococcus aureus; conditions: 18 h, visual inspection
# Method: as §7, §6
# E. coli AG100 A [6] = assay: Real-time ethidium bromide accumulation (efflux pump inhibition); assay type: cell-based, Escherichia coli; conditions: compounds at ¼ MIC, EB 1 μg/mL, minute 30
# Method: as §3, §4, §5
# [7] = test system: Enterobacter cloacae 31298; assay: Minimum inhibitory concentration (broth microdilution, CLSI); assay type: cell-based; conditions: E. cloacae 31298
# Method: (§8) The following bacterial strains were applied in the QS tests: C. violaceum 026 as sensor strain and E. cloacae 31298 isolated from clinical wound (used as N-acyl-homoserine lactone (AHL) producer); this strain induced pigment production by C. violaceum and is a model strain to study QS interactions.
# as §6
# [8] = test system: Chromobacterium violaceum 026; assay: as above; assay type: cell-based; conditions: C. violaceum 026
# Method: as §8, §6
# E. coli AG100 [9] = assay: as above; assay type: cell-based, Escherichia coli; conditions: E. coli AG100, 18 h, visual inspection, read-out: MIC
# Method: The strains were donated by Prof. Dr. Hiroshi Nikaido (Department of Molecular and Cell Biology and Chemistry, University of California, Berkeley, CA, USA).
# as §6
# S. aureus ATCC 25923 = assay: Real-time ethidium bromide accumulation (efflux pump inhibition); assay type: cell-based, Staphylococcus aureus; conditions: compounds at ¼ MIC, EB 1 μg/mL, minute 30
# Method: as §3, §4, §5
# S. aureus 272123 (MRSA) [10] = assay: as above; assay type: cell-based, Staphylococcus aureus; conditions: compounds at ¼ MIC (3 at 12.5 µM), VER at 25 µM, EB 1 μg/mL, minute 30
# Method: as §3, §4, §5
# [11] = test system: MRC-5 human embryonal lung fibroblast cell line; assay: Cytotoxicity assay (MTT); assay type: cell-based
# Method: The MRC-5 human embryonic lung fibroblast cell line (ATCC CCL-171; provider: LGC Promochem, Teddington, UK) was used in the experiments. The cells were cultivated in Eagle’s Minimal Essential Medium (EMEM; Sigma–Aldrich, St. Louis, MO, USA), supplemented with 1% non-essential amino acid mixture, 10% heat-inactivated fetal bovine serum, 2 mM L-glutamine, 1 mM Na-pyruvate, nystatin, and a penicillin–streptomycin mixture in concentrations of 100 U/L and 10 mg/L, respectively. The supplementary components were obtained from Sigma–Aldrich, St. Louis, MO, USA. The cell culture was kept in a humidified atmosphere (5% CO2, 95% air) at 37 °C.
# The activity of increasing concentrations of the compounds on cell growth was determined in 96-well flat-bottomed microtiter plates by two-fold serial dilutions of the benzoxazole derivatives. The adherent human embryonic lung fibroblast cells (10^4/well) was seeded in EMEM medium in 96-well microtiter plates for 4 h prior to the assay. The serial dilutions of the compounds were made in a separate plate, and then pipetted to the plates containing the MRC-5 cell line. Culture plates were incubated at 37 °C for 24 h; at the end of the incubation period, 20 μL of MTT (3-(4,5-dimethylthiazol-2-yl)-2,5-diphenyltetrazolium bromide) solution (from a 5 mg/mL stock solution) was measured to each well. After the incubation at 37 °C for 4 h, 100 μL of sodium dodecyl sulfate (SDS) solution (10% SDS in 0.01 M HCl) was added to each well to dissolve the formazan crystals and the samples were further incubated at 37 °C overnight. Cell growth was calculated by measuring the OD at 540 nm (ref. 630 nm) with a Multiscan EX ELISA reader. The cytotoxicity was expressed as IC50 values, defined as the inhibitory dose that reduces the growth of the cells exposed to the tested compounds by 50%.
# [12] = compound at ¼ MIC, value is the MIC of ciprofloxacin
structure (smiles),measurement,setting,value
"CN(C)[C@@H]1C(O)=C(C(N)=O)C(=O)[C@@]2(O)C(O)=C3C(=O)c4c(O)cccc4[C@@](C)(O)[C@H]3C[C@@H]12 [TET, tetracycline, reference compound]",MIC of antibiotic in the absence of the compounds,E. coli AG100 [1]; antibiotic alone,50 µM
same,MIC of antibiotic in the absence of the compounds,S. aureus MRSA 272123; antibiotic alone,6.25 µM
O=C(Cc1nc2ccccc2o1)C(F)(F)Cl [Compound 2],Relative fluorescence index (RFI),E. coli AG100 [2],0.17
same,MIC,"E. coli AG100 A [3]; Escherichia coli, AG100A",25 µM
same,MIC,"[4]; Staphylococcus aureus, ATCC25923",12.5 µM
same,MIC,S. aureus 272123 (MRSA) [5],3.125 µM
same,MIC,S. aureus 272123 (MRSA) [5]; Staphylococcus aureus,3.12 µM
same,Relative fluorescence index (RFI),E. coli AG100 A [6],−0.01
same,MIC,[7]; Enterobacter cloacae,> 100 µM
same,MIC,[8]; Chromobacterium violaceum,> 100 µM
same,MIC,E. coli AG100 [9]; Escherichia coli,50 µM
same,Relative fluorescence index (RFI),S. aureus ATCC 25923,−0.07
same,Relative fluorescence index (RFI),S. aureus 272123 (MRSA) [10],−0.07
same,Cytotoxic effect (class in words),[11]; 24 h,no (IC50 > 100 µM)
same,IC50,"[11]; Homo sapiens, MRC5, 24 h",> 100 µM
[Cu+2].[O-]C(=Cc1nc2ccccc2o1)C(F)(F)F.[O-]C(=Cc1nc2ccccc2o1)C(F)(F)F [Compound 7],Relative fluorescence index (RFI),E. coli AG100 [2],−0.06
same,MIC,"E. coli AG100 A [3]; E. coli AG100 A (AcrAB-TolC deleted), visual inspection",12.5 µM
same,MIC,[4],12.5 µM
same,CIP MIC in combination with compounds,E. coli AG100 [1]; [12],0.016 µM
same,Reduction of the MIC value of CIP,S. aureus MRSA 272123; compound at a quarter of the MIC,2 fold
same,CIP MIC in combination with compounds,S. aureus MRSA 272123; [12],6.25 µM
same,MIC,S. aureus 272123 (MRSA) [5],3.125 µM
same,Relative fluorescence index (RFI),E. coli AG100 A [6],0.11
same,MIC,[7],>100 µM
same,MIC,[8],>100 µM
same,MIC,E. coli AG100 [9],>100 µM
same,Relative fluorescence index (RFI),S. aureus ATCC 25923,0.12
same,Relative fluorescence index (RFI),S. aureus 272123 (MRSA) [10],−0.01
same,Cytotoxic effect (class in words),[11]; 24 h,weak (IC50: 61–100)
same,IC50,[11]; 24 h,76.1 µM
"CN(C)CCCN1c2ccccc2Sc2ccc(Cl)cc21 [CPZ, Chlorpromazine, reference compound]",Relative fluorescence index (RFI),E. coli AG100 [2],0.38
same,Relative fluorescence index (RFI),E. coli AG100 A [6],0.48
same,Relative fluorescence index (RFI),S. aureus ATCC 25923,0.17

# — PMC7600679, “Benzoxazole-Based Metal Complexes to Reverse Multidrug Resistance in Bacteria” (Antibiotics, 2020)
